Assay results from patent US12605401B2, “Polymers, compositions and methods for treating hyperuricemia” (WATERSTONE PHARMACEUTICALS (WUHAN) CO., LTD., priority 2021, dated 2026).

Tested on: chronic hyperuricemia model rats
Experiment: Chronic hyperuricemia model, adenine + ethambutol, 21 days; serum UA, CREA, UREA
Type: in vivo
Method: 48 rats were randomly divided into 6 groups with 8 rats in each group. The groups were as follows: Blank Group (Vehicle, ig), Model Group (Vehicle, ig), Positive control group (Allopurinol, 10 mg/kg, ig), Compound 1 group (Sevelamer carbonate, 250 mg/kg, ig), Compound 2 low-dose group (TAA polymer, 50 mg/kg, ig), Compound 2 high-dose group (TAA polymer, 250 mg/kg, ig). Except for blank group, rats in other groups were modeled according to the chronic modeling method. The modeling method was as follows: rats were given Adenine (100 mg/kg)+Ethambutol (250 mg/kg) by gavage, once a day, for 21 days. Animals in blank group and model group were given equal volume of normal saline by gavage. Animals in positive control group were given positive 10 mg/kg Alloalcohol, once in the first week, once in the second week, once a day for 3 days before sampling in the third week. Animals in other groups were given intragastric administration once a day for 14 consecutive days from the 8th day of modeling. Blood samples were taken at Day 21 after modeling, and serum samples were separated and stored at −80° C. for biochemical detection.
After 21 days of modeling (14 days of drug treatment), blood samples were taken and serum separation was performed to detect three renal functions (UA, CREA and UREA) (See Table 1 and FIGS. 2a, 2b and 2c). Compound 1 is Sevelamer carbonate and Compound 2 is a graft polytriallylamine with 50% molar percentage of the moiety to the tertiary amine in polytriallylamine.

Oc1ncnc2[nH]ncc12 [Allopurinol]
CREA, effect in words (10 mg/kg ig, day 21): significantly reduced
UA, effect in words (10 mg/kg ig, day 21): significantly reduced
UREA, effect in words (10 mg/kg ig, day 21): significantly reduced
CREA and UREA, conclusion in words (protective effect on the kidney) (conclusion over the dose groups): can decrease
